Source: patent EP4617278A1, “NUCLEOTIDE ANALOG, AND COMPOSITION AND USE THEREOF” (priority 2022, dated 2024)

Test system: RSV A2 virus
Test: RSV CPE assay
Settings: human respiratory syncytial virus, HEp-2, 120 h, read-out: RSV A2 (Hep-2 cell) EC50

Row | SMILES | EC50
1 | CC(C)C(=O)OCOP(=O)(OC[C@H]1O[C@@](C#N)(c2ccc3c(N)ncnn23)[C@H](OC(=O)C(C)C)[C@@H]1OC(=O)C(C)C)Oc1ccc(C(C)(C)C)cc1 (mixture of isomers) [Compound 26, (2R,3R,4R,5R)-2-(4-aminopyrrolo[2,1-f][1,2,4]triazin-7-yl)-5-((((4-tert-butylphenoxy)((isobutyryloxy)methoxy)phosphoryl)oxy)methyl)-2-cyanotetrahydrofuran-3,4-diyl bis(2-methylpropionate)] | > 1000 nM
2 | CC(C)C(=O)O[C@H]1[C@@H](OC(=O)C(C)C)[C@](C#N)(c2ccc3c(N)ncnn23)O[C@@H]1COP(=O)(OCCSC(=O)C(C)(C)C)Oc1ccc(C(C)(C)C)cc1 (mixture of isomers) [Compound 27, (2R,3R,4R,5R)-2-(4-aminopyrrolo[2,1-f][1,2,4]triazin-7-yl)-5-((((4-tert-butylphenoxy)(2-(pivaloylthio)ethoxy)phosphoryl)oxy)methyl)-2-cyanotetrahydrofuran-3,4-diyl bis(2-methylpropionate)] | 200 to 500 nM
3 | CC(C)OC(=O)OCO[P@@](=O)(N[C@@H](C)C(=O)OC(C)C)OC[C@H]1O[C@@](C#N)(c2ccc3c(N)ncnn23)[C@H](OC(=O)C(C)C)[C@@H]1OC(=O)C(C)C [Compound 3a, (2R,3R,4R,5R)-2-(4-aminopyrrolo[2,1-f][1,2,4]triazin-7-yl)-2-cyano-5-((((R)-(((S)-1-isopropoxy-1-oxopropan-2-yl)amino)(((isopropoxycarbonyl)oxy)methoxy)phosphoryl)oxy)methyl)tetrahydrofuran-3,4-diyl bis(2-methylpropionate)] | 200 to 500 nM
4 | CC(C)OC(=O)OCO[P@](=O)(N[C@@H](C)C(=O)OC(C)C)OC[C@H]1O[C@@](C#N)(c2ccc3c(N)ncnn23)[C@H](OC(=O)C(C)C)[C@@H]1OC(=O)C(C)C [Compound 3b, (2R,3R,4R,5R)-2-(4-aminopyrrolo[2,1-f][1,2,4]triazin-7-yl)-2-cyano-5-((((S)-(((S)-1-isopropoxy-1-oxopropan-2-yl)amino)(((isopropoxycarbonyl)oxy)methoxy)phosphoryl)oxy)methyl)tetrahydrofuran-3,4-diyl bis(2-methylpropionate)] | 100 to 200 nM
5 | CCC(CC)COC(=O)[C@H](C)N[P@](=O)(OCOC(=O)OC(C)C)OC[C@H]1O[C@@](C#N)(c2ccc3c(N)ncnn23)[C@H](OC(=O)C(C)C)[C@@H]1OC(=O)C(C)C [Compound 7a, (2R,3R,4R,5R)-2-(4-aminopyrrolo[2,1-f][1,2,4]triazin-7-yl)-2-cyano-5-((((R)-(((S)-1-(2-ethylbutoxy)-1-oxopropan-2-yl)amino)(((isopropoxycarbonyl)oxy)methoxy)phosphoryl)oxy)methyl)tetrahydrofuran-3,4-diyl bis(2-methylpropionate)] | 200 to 500 nM
6 | CCC(CC)COC(=O)[C@H](C)N[P@@](=O)(OCOC(=O)OC(C)C)OC[C@H]1O[C@@](C#N)(c2ccc3c(N)ncnn23)[C@H](OC(=O)C(C)C)[C@@H]1OC(=O)C(C)C [Compound 7b, (2R,3R,4R,5R)-2-(4-aminopyrrolo[2,1-f][1,2,4]triazin-7-yl)-2-cyano-5-((((S)-(((S)-1-(2-ethylbutoxy)-1-oxopropan-2-yl)amino)(((isopropoxycarbonyl)oxy)methoxy)phosphoryl)oxy)methyl)tetrahydrofuran-3,4-diyl bis(2-methylpropionate)] | 100 to 200 nM
7 | CCC(CC)COC(=O)[C@H](C)N[P@@](=O)(OCOC(=O)C(C)(C)C)OC[C@H]1O[C@@](C#N)(c2ccc3c(N)ncnn23)[C@H](OC(=O)C(C)C)[C@@H]1OC(=O)C(C)C [Compound 11b, (2R,3R,4R,5R)-2-(4-aminopyrrolo[2,1-f][1,2,4]triazin-7-yl)-2-cyano-5-((((S)-(((S)-1-(2-ethylbutoxy)-1-oxopropan-2-yl)amino)((pivaloyloxy)methoxy)phosphoryl)oxy)methyl)tetrahydrofuran-3,4-diyl bis(2-methylpropionate)] | 200 to 500 nM
